# Source: patent publication US4464385A, “Treatment of diabetic complications with hydantoins” (Alcon Laboratories, Inc., priority 1982, dated 1984)
# What was measured:
# [1] = test system: cataracts in rats; experiment: Prevention or retardation of cataracts in galactose-fed rats; assay type: in vivo, rat; details: for suppression of the formation of nuclear cataracts: 30 days; for % of Total Eyes, + (vacuole) / % of Total Eyes, - (Normal) / % of Total Eyes, N (nuclear cataract) / % of Total Eyes, S (snowflake) / Number of Eyes Observed, + (vacuole) / Number of Eyes Observed, - (Normal) / Number of Eyes Observed, N (nuclear cataract) / Number of Eyes Observed, S (snowflake) / Number of Eyes Observed, ±: 30% galactose diet, A,C,E 0.0025%, B,D 0.01%
# Summary of the method: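 Rats given test compound mixed into diet (by % of total feed weight; 0.01% designed to supply 20 mg/kg/day) ad libitum for thirty days after a two-day chow acclimatization, twelve animals per treatment. Eyes examined by handheld ophthalmoscope and/or penlight and each eye graded.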
# [2] = test system: aldose reductase; experiment: Aldose reductase inhibition / potency (general statement)
smiles,measurement,setting,value
"C[S+]([O-])c1ccc2c(c1)C1(CCO2)NC(=O)NC1=O (centres unmarked) [D, spiro-(6-methylsulfinylchroman-4,4'-imidazolidine)-2',5'-dione]",suppression of the formation of nuclear cataracts,[1]; 0.0025% in diet,greater than 80%
same,"time to vacuole formation, versus galactose control",[1]; 0.01% in diet,different (p<0.05) from control
same,suppression of the formation of nuclear cataracts,[1]; 0.01% in diet,greater than 80%
same,"% of Total Eyes, + (vacuole)",[1]; Study Day 2,0%
same,"% of Total Eyes, - (Normal)",[1]; Study Day 2,100.0%
same,"% of Total Eyes, N (nuclear cataract)",[1]; Study Day 2,0%
same,"% of Total Eyes, S (snowflake)",[1]; Study Day 2,0%
same,"Number of Eyes Observed, + (vacuole)",[1]; Study Day 2,0 eyes
same,"Number of Eyes Observed, - (Normal)",[1]; Study Day 2,24 eyes
same,"Number of Eyes Observed, N (nuclear cataract)",[1]; Study Day 2,0 eyes
same,"Number of Eyes Observed, S (snowflake)",[1]; Study Day 2,0 eyes
same,"Number of Eyes Observed, ±",[1]; Study Day 2,0 eyes
same,"% of Total Eyes, + (vacuole)",[1]; Study Day 3,0%
same,"% of Total Eyes, - (Normal)",[1]; Study Day 3,91.7%
same,"% of Total Eyes, N (nuclear cataract)",[1]; Study Day 3,0%
same,"% of Total Eyes, S (snowflake)",[1]; Study Day 3,0%
same,"Number of Eyes Observed, + (vacuole)",[1]; Study Day 3,0 eyes
same,"Number of Eyes Observed, - (Normal)",[1]; Study Day 3,22 eyes
same,"Number of Eyes Observed, N (nuclear cataract)",[1]; Study Day 3,0 eyes
same,"Number of Eyes Observed, S (snowflake)",[1]; Study Day 3,0 eyes
same,"Number of Eyes Observed, ±",[1]; Study Day 3,2 eyes
same,"% of Total Eyes, + (vacuole)",[1]; Study Day 4,16.7%
same,"% of Total Eyes, - (Normal)",[1]; Study Day 4,75.0%
same,"% of Total Eyes, N (nuclear cataract)",[1]; Study Day 4,0%
same,"% of Total Eyes, S (snowflake)",[1]; Study Day 4,0%
same,"Number of Eyes Observed, + (vacuole)",[1]; Study Day 4,4 eyes
same,"Number of Eyes Observed, - (Normal)",[1]; Study Day 4,18 eyes
same,"Number of Eyes Observed, N (nuclear cataract)",[1]; Study Day 4,0 eyes
same,"Number of Eyes Observed, S (snowflake)",[1]; Study Day 4,0 eyes
same,"Number of Eyes Observed, ±",[1]; Study Day 4,2 eyes
same,"% of Total Eyes, + (vacuole)",[1]; Study Day 5,33.3%
same,"% of Total Eyes, - (Normal)",[1]; Study Day 5,33.3%
same,"% of Total Eyes, N (nuclear cataract)",[1]; Study Day 5,0%
same,"% of Total Eyes, S (snowflake)",[1]; Study Day 5,0%
same,"Number of Eyes Observed, + (vacuole)",[1]; Study Day 5,8 eyes
same,"Number of Eyes Observed, - (Normal)",[1]; Study Day 5,8 eyes
same,"Number of Eyes Observed, N (nuclear cataract)",[1]; Study Day 5,0 eyes
same,"Number of Eyes Observed, S (snowflake)",[1]; Study Day 5,0 eyes
same,"Number of Eyes Observed, ±",[1]; Study Day 5,8 eyes
same,"% of Total Eyes, + (vacuole)",[1]; Study Day 6,41.6%
same,"% of Total Eyes, - (Normal)",[1]; Study Day 6,25.0%
same,"% of Total Eyes, N (nuclear cataract)",[1]; Study Day 6,0%
same,"% of Total Eyes, S (snowflake)",[1]; Study Day 6,0%
same,"Number of Eyes Observed, + (vacuole)",[1]; Study Day 6,10 eyes
same,"Number of Eyes Observed, - (Normal)",[1]; Study Day 6,6 eyes
same,"Number of Eyes Observed, N (nuclear cataract)",[1]; Study Day 6,0 eyes
same,"Number of Eyes Observed, S (snowflake)",[1]; Study Day 6,0 eyes
same,"Number of Eyes Observed, ±",[1]; Study Day 6,8 eyes
same,"% of Total Eyes, + (vacuole)",[1]; Study Day 8,50.0%
same,"% of Total Eyes, - (Normal)",[1]; Study Day 8,16.7%
same,"% of Total Eyes, N (nuclear cataract)",[1]; Study Day 8,0%
same,"% of Total Eyes, S (snowflake)",[1]; Study Day 8,8.3%
same,"Number of Eyes Observed, + (vacuole)",[1]; Study Day 8,12 eyes
same,"Number of Eyes Observed, - (Normal)",[1]; Study Day 8,4 eyes
same,"Number of Eyes Observed, N (nuclear cataract)",[1]; Study Day 8,0 eyes
same,"Number of Eyes Observed, S (snowflake)",[1]; Study Day 8,2 eyes
same,"Number of Eyes Observed, ±",[1]; Study Day 8,6 eyes
same,"% of Total Eyes, + (vacuole)",[1]; Study Day 10,58.4%
same,"% of Total Eyes, - (Normal)",[1]; Study Day 10,8.3%
same,"% of Total Eyes, N (nuclear cataract)",[1]; Study Day 10,0%
same,"% of Total Eyes, S (snowflake)",[1]; Study Day 10,16.7%
same,"Number of Eyes Observed, + (vacuole)",[1]; Study Day 10,14 eyes
same,"Number of Eyes Observed, - (Normal)",[1]; Study Day 10,2 eyes
same,"Number of Eyes Observed, N (nuclear cataract)",[1]; Study Day 10,0 eyes
same,"Number of Eyes Observed, S (snowflake)",[1]; Study Day 10,4 eyes
same,"Number of Eyes Observed, ±",[1]; Study Day 10,4 eyes
same,"% of Total Eyes, + (vacuole)",[1]; Study Day 12,62.5%
same,"% of Total Eyes, - (Normal)",[1]; Study Day 12,0%
same,"% of Total Eyes, N (nuclear cataract)",[1]; Study Day 12,0%
same,"% of Total Eyes, S (snowflake)",[1]; Study Day 12,20.8%
same,"Number of Eyes Observed, + (vacuole)",[1]; Study Day 12,15 eyes
same,"Number of Eyes Observed, - (Normal)",[1]; Study Day 12,0 eyes
same,"Number of Eyes Observed, N (nuclear cataract)",[1]; Study Day 12,0 eyes
same,"Number of Eyes Observed, S (snowflake)",[1]; Study Day 12,5 eyes
same,"Number of Eyes Observed, ±",[1]; Study Day 12,4 eyes
same,"% of Total Eyes, + (vacuole)",[1]; Study Day 14,62.5%
same,"% of Total Eyes, - (Normal)",[1]; Study Day 14,0%
same,"% of Total Eyes, N (nuclear cataract)",[1]; Study Day 14,0%
same,"% of Total Eyes, S (snowflake)",[1]; Study Day 14,29.2%
same,"Number of Eyes Observed, + (vacuole)",[1]; Study Day 14,15 eyes
same,"Number of Eyes Observed, - (Normal)",[1]; Study Day 14,0 eyes
same,"Number of Eyes Observed, N (nuclear cataract)",[1]; Study Day 14,0 eyes
same,"Number of Eyes Observed, S (snowflake)",[1]; Study Day 14,7 eyes
same,"Number of Eyes Observed, ±",[1]; Study Day 14,2 eyes
same,"% of Total Eyes, + (vacuole)",[1]; Study Day 16,45.8%
same,"% of Total Eyes, - (Normal)",[1]; Study Day 16,0%
same,"% of Total Eyes, N (nuclear cataract)",[1]; Study Day 16,0%
same,"% of Total Eyes, S (snowflake)",[1]; Study Day 16,37.5%
same,"Number of Eyes Observed, + (vacuole)",[1]; Study Day 16,13 eyes
same,"Number of Eyes Observed, - (Normal)",[1]; Study Day 16,0 eyes
same,"Number of Eyes Observed, N (nuclear cataract)",[1]; Study Day 16,0 eyes
same,"Number of Eyes Observed, S (snowflake)",[1]; Study Day 16,9 eyes
same,"Number of Eyes Observed, ±",[1]; Study Day 16,2 eyes
same,"% of Total Eyes, + (vacuole)",[1]; Study Day 18,54.2%
same,"% of Total Eyes, - (Normal)",[1]; Study Day 18,0%
same,"% of Total Eyes, N (nuclear cataract)",[1]; Study Day 18,0%
same,"% of Total Eyes, S (snowflake)",[1]; Study Day 18,37.5%
same,"Number of Eyes Observed, + (vacuole)",[1]; Study Day 18,13 eyes
same,"Number of Eyes Observed, - (Normal)",[1]; Study Day 18,0 eyes
same,"Number of Eyes Observed, N (nuclear cataract)",[1]; Study Day 18,0 eyes
same,"Number of Eyes Observed, S (snowflake)",[1]; Study Day 18,9 eyes
same,"Number of Eyes Observed, ±",[1]; Study Day 18,2 eyes
same,"% of Total Eyes, + (vacuole)",[1]; Study Day 20,29.2%
same,"% of Total Eyes, - (Normal)",[1]; Study Day 20,0%
same,"% of Total Eyes, N (nuclear cataract)",[1]; Study Day 20,4.2%
same,"% of Total Eyes, S (snowflake)",[1]; Study Day 20,58.4%
same,"Number of Eyes Observed, + (vacuole)",[1]; Study Day 20,7 eyes
same,"Number of Eyes Observed, - (Normal)",[1]; Study Day 20,0 eyes
same,"Number of Eyes Observed, N (nuclear cataract)",[1]; Study Day 20,1 eyes
same,"Number of Eyes Observed, S (snowflake)",[1]; Study Day 20,14 eyes
same,"Number of Eyes Observed, ±",[1]; Study Day 20,2 eyes
same,"% of Total Eyes, + (vacuole)",[1]; Study Day 22,20.8%
same,"% of Total Eyes, - (Normal)",[1]; Study Day 22,0%
same,"% of Total Eyes, N (nuclear cataract)",[1]; Study Day 22,8.3%
same,"% of Total Eyes, S (snowflake)",[1]; Study Day 22,70.8%
same,"Number of Eyes Observed, + (vacuole)",[1]; Study Day 22,5 eyes
same,"Number of Eyes Observed, - (Normal)",[1]; Study Day 22,0 eyes
same,"Number of Eyes Observed, N (nuclear cataract)",[1]; Study Day 22,2 eyes
same,"Number of Eyes Observed, S (snowflake)",[1]; Study Day 22,17 eyes
same,"Number of Eyes Observed, ±",[1]; Study Day 22,0 eyes
same,"% of Total Eyes, + (vacuole)",[1]; Study Day 24,20.8%
same,"% of Total Eyes, - (Normal)",[1]; Study Day 24,0%
same,"% of Total Eyes, N (nuclear cataract)",[1]; Study Day 24,8.3%
same,"% of Total Eyes, S (snowflake)",[1]; Study Day 24,70.8%
same,"Number of Eyes Observed, + (vacuole)",[1]; Study Day 24,5 eyes
same,"Number of Eyes Observed, - (Normal)",[1]; Study Day 24,0 eyes
same,"Number of Eyes Observed, N (nuclear cataract)",[1]; Study Day 24,2 eyes
same,"Number of Eyes Observed, S (snowflake)",[1]; Study Day 24,17 eyes
same,"Number of Eyes Observed, ±",[1]; Study Day 24,0 eyes
same,"% of Total Eyes, + (vacuole)",[1]; Study Day 26,16.7%
same,"% of Total Eyes, - (Normal)",[1]; Study Day 26,0%
same,"% of Total Eyes, N (nuclear cataract)",[1]; Study Day 26,8.3%
same,"% of Total Eyes, S (snowflake)",[1]; Study Day 26,75.0%
same,"Number of Eyes Observed, + (vacuole)",[1]; Study Day 26,4 eyes
same,"Number of Eyes Observed, - (Normal)",[1]; Study Day 26,0 eyes
same,"Number of Eyes Observed, N (nuclear cataract)",[1]; Study Day 26,2 eyes
same,"Number of Eyes Observed, S (snowflake)",[1]; Study Day 26,18 eyes
same,"Number of Eyes Observed, ±",[1]; Study Day 26,0 eyes
same,"% of Total Eyes, + (vacuole)",[1]; Study Day 28,16.7%
same,"% of Total Eyes, - (Normal)",[1]; Study Day 28,0%
same,"% of Total Eyes, N (nuclear cataract)",[1]; Study Day 28,16.7%
same,"% of Total Eyes, S (snowflake)",[1]; Study Day 28,66.7%
same,"Number of Eyes Observed, + (vacuole)",[1]; Study Day 28,4 eyes
same,"Number of Eyes Observed, - (Normal)",[1]; Study Day 28,0 eyes
same,"Number of Eyes Observed, N (nuclear cataract)",[1]; Study Day 28,4 eyes
same,"Number of Eyes Observed, S (snowflake)",[1]; Study Day 28,16 eyes
same,"Number of Eyes Observed, ±",[1]; Study Day 28,0 eyes
same,"% of Total Eyes, + (vacuole)",[1]; Study Day 30,4.2%
same,"% of Total Eyes, - (Normal)",[1]; Study Day 30,0%
same,"% of Total Eyes, N (nuclear cataract)",[1]; Study Day 30,16.7%
same,"% of Total Eyes, S (snowflake)",[1]; Study Day 30,79.2%
same,"Number of Eyes Observed, + (vacuole)",[1]; Study Day 30,1 eyes
same,"Number of Eyes Observed, - (Normal)",[1]; Study Day 30,0 eyes
same,"Number of Eyes Observed, N (nuclear cataract)",[1]; Study Day 30,4 eyes
same,"Number of Eyes Observed, S (snowflake)",[1]; Study Day 30,19 eyes
same,"Number of Eyes Observed, ±",[1]; Study Day 30,0 eyes
same,"time to vacuole formation, 0.0025% methylthio versus 0.01% sulfinyl","[1]; methylthio 0.0025%, sulfinyl 0.01% in diet",not different from each other
same,activity relative to the methylthio derivative,[2],lacked the activity of the methylthio derivative
